Consider two molecules from patent US8334315B2, “Substituted aromatic carboxamide and urea derivatives as vanilloid receptor ligands” (Gruenenthal GmbH, priority 2009, dated 2012).

In the assay the target is T1, rat-species vanilloid receptor 1 (VR1/TRPV1) (Rattus norvegicus, UniProt O35433).
T1 construct: endogenous in cells; host or cells: primary cells dissociated from rat dorsal root ganglia (DRG), cultured 2-3 days with NGF
In words: Functional test on rat VR1, NADA (N-arachidonoyl dopamine) stimulus. The class given is cell-based. Also on record: key to Ki (rat) NADA: agonist / partial agonist / no effect: AG=agonist; pAG=partial agonist; NE=no effect. The text has this:
I. Functional Testing Carried Out on the Vanilloid Receptor 1 (VRI/TRPV1 Receptor)
The agonistic or antagonistic effect of the substances to be tested on the rat-species vanilloid receptor 1 (VR1/TRPV1) can be determined using the following assay. In this assay, the influx of Ca^2+ through the receptor channel is quantified with the aid of a Ca^2+-sensitive dye (type Fluo-4, Molecular Probes Europe BV, Leiden, the Netherlands) in a fluorescent imaging plate reader (FLIPR, Molecular Devices, Sunnyvale, USA).
The vertebral column is removed from decapitated rats and placed immediately into cold HBSS buffer (Hank's buffered saline solution, Gibco Invitrogen GmbH, Karlsruhe, Germany), i.e. buffer located in an ice bath, mixed with 1% by volume (per cent by volume) of an AA solution (antibiotic/antimyotic solution, PAA, Pasching, Austria). […] The resulting pellet is respectively taken up in 250 μL of complete medium and the cell count is determined.
The number of cells in the suspension is set to 3×10^5 per ml and 150 μL of this suspension are in each case introduced into a recess in the cell culture plates coated as described hereinbefore. […] The Ca^2+-dependent fluorescence is in this case measured before and after the addition of substances (λex=488 nm, λem=540 nm). Quantification is carried out by measuring the highest fluorescence intensity (FC, fluorescence counts) over time. […]

T1 sequence (O35433 whole entry): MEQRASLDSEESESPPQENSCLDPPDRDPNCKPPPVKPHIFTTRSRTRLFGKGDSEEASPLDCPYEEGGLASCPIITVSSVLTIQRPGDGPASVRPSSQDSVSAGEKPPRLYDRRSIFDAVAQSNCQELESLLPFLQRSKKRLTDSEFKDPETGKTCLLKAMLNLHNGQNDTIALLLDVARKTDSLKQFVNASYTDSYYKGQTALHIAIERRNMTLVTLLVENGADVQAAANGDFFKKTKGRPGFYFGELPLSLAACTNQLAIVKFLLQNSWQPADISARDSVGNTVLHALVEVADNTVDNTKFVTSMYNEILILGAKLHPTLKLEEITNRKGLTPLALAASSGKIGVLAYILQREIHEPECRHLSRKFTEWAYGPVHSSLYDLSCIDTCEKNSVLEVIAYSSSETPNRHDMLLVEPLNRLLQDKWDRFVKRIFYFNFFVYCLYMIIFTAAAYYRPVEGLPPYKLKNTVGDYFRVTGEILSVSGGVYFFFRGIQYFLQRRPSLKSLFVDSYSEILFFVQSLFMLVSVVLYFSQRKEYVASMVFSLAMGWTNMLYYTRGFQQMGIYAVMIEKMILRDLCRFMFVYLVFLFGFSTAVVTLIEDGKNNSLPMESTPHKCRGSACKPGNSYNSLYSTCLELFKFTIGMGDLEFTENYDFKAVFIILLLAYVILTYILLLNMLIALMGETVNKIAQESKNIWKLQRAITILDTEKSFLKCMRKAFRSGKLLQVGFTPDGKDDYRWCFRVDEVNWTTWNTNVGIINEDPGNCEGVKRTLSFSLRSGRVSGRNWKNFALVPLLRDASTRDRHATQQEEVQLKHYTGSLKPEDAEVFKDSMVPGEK

`Cc1nc2ccc(C(C)C(=O)NCc3cc(C(F)(F)F)nn3-c3cccc(Cl)c3)cc2s1` (centres unmarked) [Example 45, N-((1-(3-chlorophenyl)-3-(trifluoromethyl)-1H-pyrazol-5-yl)methyl)-2-(2-methylbenzo[d]thiazol-6-yl)propanamide]: the “Ki (rat) NADA: agonist / partial agonist / no effect” value was “AG”.
What is called Ki is a dissociation constant, usually derived from enzyme kinetics or from competition with a known ligand. The molecule `CC(C)(C)c1cc(CNC(=O)Nc2ccc3c(c2)CCC3)n(-c2cccc(Cl)c2)n1` [Example 79, 1-((3-tert-butyl-1-(3-chlorophenyl)-1H-pyrazol-5-yl)methyl)-3-(2,3-dihydro-1H-inden-5-yl)urea] returned a Ki of 39.1 nM.
